{"source": "patent US5656603A", "about": "(Loyola University of Chicago, priority 1995, dated 1997)", "format_in_all_cases": "biochemical", "key": {"[1]": {"biological_target": "bestatin-sensitive/amastatin-insensitive membrane dipeptidase", "assay": "Specificity of apstatin: bestatin-sensitive/amastatin-insensitive membrane dipeptidase", "conditions": "bovine lung microsomes; Arg-Trp, pH 6.8, FLUO", "protocol": "(§1) Specificity of Apstatin--Apstatin was assayed for its ability to inhibit several other peptidases. […] Unless otherwise indicated, the source of each enzyme activity was a detergent extract of bovine lung prepared as described in (12-13). Activities were determined by a modification of the fluorescent assay described above (indicated by \"FLUO\") or by HPLC separation and quantitation of reaction products using the method described in (12) (method \"HPLC-1\") or the method described below (method \"HPLC-2\"). […]"}, "[2]": {"biological_target": "T1, purified bovine lung membrane-bound aminopeptidase P (Bos taurus, UniProt E1B735)", "T1 construct": "from tissue; host or cells: bovine lung", "T1 sequence (E1B735 22-673)": "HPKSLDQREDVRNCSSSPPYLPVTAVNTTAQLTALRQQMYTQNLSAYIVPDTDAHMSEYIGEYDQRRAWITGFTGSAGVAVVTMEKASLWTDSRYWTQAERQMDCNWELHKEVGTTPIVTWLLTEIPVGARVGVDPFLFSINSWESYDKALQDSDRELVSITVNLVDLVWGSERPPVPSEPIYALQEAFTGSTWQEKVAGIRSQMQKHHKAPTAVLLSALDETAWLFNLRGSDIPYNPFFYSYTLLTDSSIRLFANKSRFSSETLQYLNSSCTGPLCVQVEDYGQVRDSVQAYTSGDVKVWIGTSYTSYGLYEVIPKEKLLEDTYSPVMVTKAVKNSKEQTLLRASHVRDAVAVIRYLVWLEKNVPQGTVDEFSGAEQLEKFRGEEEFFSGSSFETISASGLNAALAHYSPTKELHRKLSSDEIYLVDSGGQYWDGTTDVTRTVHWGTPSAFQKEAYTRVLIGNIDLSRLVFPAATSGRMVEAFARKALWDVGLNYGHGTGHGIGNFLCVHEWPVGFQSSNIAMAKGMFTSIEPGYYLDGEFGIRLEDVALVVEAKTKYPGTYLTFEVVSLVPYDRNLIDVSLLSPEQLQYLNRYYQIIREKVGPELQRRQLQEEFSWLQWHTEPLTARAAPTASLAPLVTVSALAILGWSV", "assay": "Aminopeptidase P inhibition, release of arginine from Arg-Pro-Pro (fluorescent assay)", "protocol": "The IC50 of the compound of the present invention in relation to aminopeptidase P was also determined. […] The specificity of the compound of the present invention for other aminopeptidases was similarly determined as described in the Experimental Procedures herein. […] The following enzymes had IC50 values>800 μM: aminopeptidase A, angiotensin converting enzyme, dipeptidyl-peptidase I-like activity, bestatin-sensitive/amastatin-insensitive membrane dipeptidase (29), microsomal dipeptidase, endopeptidase 24.11, endopeptidase 24.15, and prolyl oligopeptidase.\nEnzymes--Membrane-bound aminopeptidase P was purified to homogeneity from bovine lung (14) and from rat lung. Partially purified membrane-bound aminopeptidase P from human lung was obtained by treatment of lung microsomes with phosphatidylinositol-specific phospholipase C (B. thuringiensis) (ICN, Costa Mesa, Calif.) followed by centrifugation as described previously (14). Membrane dipeptidase was purified from rat lung microsomes (manuscript in preparation). Recombinant E. coli aminopeptidase P (22) and purified lamb kidney prolyl oligopeptidase (23) were generally supplied by Dr. Tadashi Yoshimoto (Nagasaki University). Purified porcine kidney prolidase and purified porcine kidney aminopeptidase M was obtained from Sigma (St. Louis, Mo.).\nEnzyme Kinetics--Aminopeptidase P activity was determined by measuring the release of arginine from Arg-Pro-Pro by a fluorescent assay described previously (14). […] Each mixture was run in duplicate. Aliquots were removed from each incubation mixture at various times and assayed for the amount of arginine present to determine the reaction velocity. In general, reaction velocities were calculated from data representing less than 20% cleavage of substrate. Ki and Ki ' (=αKi) were determined from plots of 1/v versus concentration of inhibitor \"i\" (26) and S/v versus concentration of inhibitor \"i\" (27), respectively. These parameters were also determined from the slope replot and 1/v-intercept replot, respectively, of the 1/v versus 1/S plot (28). See e.g., FIG. 1B. The values from the two treatments of the data were averaged for each experiment. Experiments for each enzyme preparation were performed twice and the results averaged."}, "[3]": {"biological_target": "T2, dipeptidyl-peptidase IV (EC 3.4.14.5) (Bos taurus, UniProt P81425)", "T2 construct": "Unless otherwise indicated, the source of each enzyme activity was a detergent extract of bovine lung; from tissue; host or cells: detergent extract of bovine lung", "T2 sequence (P81425 whole entry)": "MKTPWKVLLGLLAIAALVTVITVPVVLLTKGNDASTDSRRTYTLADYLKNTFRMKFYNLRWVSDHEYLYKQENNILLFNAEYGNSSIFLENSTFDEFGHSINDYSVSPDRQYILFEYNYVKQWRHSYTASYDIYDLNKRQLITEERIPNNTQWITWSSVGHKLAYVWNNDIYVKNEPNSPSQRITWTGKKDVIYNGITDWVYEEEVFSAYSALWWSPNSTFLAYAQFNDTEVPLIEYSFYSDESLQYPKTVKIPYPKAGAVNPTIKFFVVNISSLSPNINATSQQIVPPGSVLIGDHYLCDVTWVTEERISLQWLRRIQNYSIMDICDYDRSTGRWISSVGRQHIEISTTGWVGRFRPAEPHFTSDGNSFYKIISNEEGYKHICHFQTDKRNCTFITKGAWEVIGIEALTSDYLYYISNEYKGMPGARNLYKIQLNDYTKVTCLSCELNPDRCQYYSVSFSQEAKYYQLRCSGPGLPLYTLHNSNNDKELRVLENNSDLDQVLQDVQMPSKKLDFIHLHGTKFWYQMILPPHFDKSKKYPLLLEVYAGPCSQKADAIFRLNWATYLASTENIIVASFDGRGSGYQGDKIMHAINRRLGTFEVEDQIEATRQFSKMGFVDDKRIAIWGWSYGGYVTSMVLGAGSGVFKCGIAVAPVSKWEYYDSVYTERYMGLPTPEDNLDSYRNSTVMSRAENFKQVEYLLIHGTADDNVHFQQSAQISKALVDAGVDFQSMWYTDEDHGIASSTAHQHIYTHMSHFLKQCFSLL", "assay": "Specificity of apstatin: dipeptidyl-peptidase IV", "conditions": "detergent extract of bovine lung; Gly-Pro-β-NA, pH 6.8, FLUO", "protocol": "as §1"}}, "data": [{"smiles": "C[C@H](NC(=O)[C@@H]1CCCN1C(=O)[C@@H]1CCCN1C(=O)[C@@H](O)[C@H](N)Cc1ccccc1)C(N)=O", "note": "[apstatin, N-[(2S, 3R)-3-amino-2-hydroxy-4-phenylbutanoyl]-L-prolyl-L-prolyl-Lalaninamide]", "values": [{"measurement": "IC50", "setting": "[1]", "value": "> 800", "unit": "µM"}, {"measurement": "IC50", "setting": "[2]; bovine lung aminopeptidase P, cleavage of 0.5 μM Arg-Pro-Pro in 0.1M Hepes, pH 8.0 at 37° C.", "value": 9.4, "unit": "µM"}, {"measurement": "type of inhibition", "setting": "[2]; bovine lung aminopeptidase P, slope and 1/v-axis intercept replots", "value": "linear mixed-type"}, {"measurement": "α (αKi = equilibrium constant for enzyme-inhibitor binding at infinite substrate concentration)", "setting": "[2]; bovine lung, purified membrane-bound form", "value": 4.2}, {"measurement": "Ki", "setting": "[2]; bovine lung, purified membrane-bound form, substrate Arg-Pro-Pro, 0.1 M Hepes pH 8.0, 39° C.", "value": 7.8, "unit": "µM"}, {"measurement": "IC50", "setting": "[3]", "value": 1100, "unit": "µM"}]}]}
